Results from article PMC11225352, “A multicenter, randomized, double-blind, placebo-controlled ascending dose study to evaluate the safety, tolerability, pharmacokinetics (PK) and pharmacodynamic (PD) effects of Posiphen in subjects with early Alzheimer’s Disease” (Alzheimer's Research & Therapy, 2024).
Read-outs that look alike come from different tables or passages of the source.

What was measured:
Aβ38 [1] = assay: SILK analysis of CSF Aβ38 (fractional synthesis rate); type: in vivo, human; conditions: after 21 days
Protocol: (§1) For biochemical analysis to derive data for SILK, ^13C6-leucine was analyzed in plasma and CSF by mass spectrometry, and Aβ peptides in CSF were analyzed by immunoprecipitation-mass spectrometry (IP-MS) as previously described, by C2N Diagnostics (St Louis, MO). CSF levels of sAPPα, sAPPβ, Aβ38, 40 and 42 were analyzed by the ADCS Biomarker Core using Mesoscale Discovery (MSD) electrochemiluminescent assays (Mesoscale Discovery, Rockville, MD). Levels of Posiphen and its N1 and N8 metabolites in plasma and CSF were measured by Charles River Laboratories (Montreal, CA) by high-performance liquid chromatographic mass spectrometry, with use of deuterated Posiphen (procured by Charles River Laboratories) as an internal standard.
For SILK, the fraction of labeled Aβ for Aβ38, 40, and 42 during 36 h after administration of study drug for each subject was calculated, as described. The FSR measures were calculated by fitting a line to the upslope of the CSF Aβ labeling data. It was assumed that the upslope occurred between hours 6–16 h after the start of confinement. […] The percentage of newly synthesized and degraded Aβ was estimated over 36 h by multiplying the […] concentration of Aβ measured at the start of confinement (i.e. at catheter placement; time = 0) by the percentage of Aβ that contains ^13C6-leucine at each time point. […]

[2] = test system: sAPPα, sAPPβ and total tau; parameters: method as in PMID 22791904; conditions: four MCI subjects, 60 mg four times per day for 10 days; cited from earlier work
APP = test system: APP; parameters: method as in PMID 36641607; conditions: mild AD (n = 14), 80 mg once per day, up to 27 days; not significant; cited from earlier work
Aβ42 = assay: CSF Aβ42 level, screening to day 21 (MSD immunoassay); type: in vivo, human; conditions: ANOVA with age and sex as covariates; p = 0.33
Protocol: as §1
(§2) Changes in CSF biomarkers from the screening to confinement (sample at time of placement of catheter) were compared in the treatment and placebo groups by ANOVA, with models that included age, sex and baseline MMSE, and further analysis stratified by treatment dose. A similar approach was taken to analyze changes in MMSE, ADAS-cog and NPI. Data were analyzed using R (version 4.2.2).

[3] = CSF pharmacokinetics of Posiphen and its N1 and N8 metabolites (lumbar catheter sampling, LC-MS); type: in vivo, human; conditions: for mean levels averaged over 24 h of CSF sampling: after 21–23 days, early AD; for Tmax: median (min-max); for AUC(0-t) / Cmax: 60 mg; for AUC(0-t): read-out: AUC0 − 24; for Cmax: read-out: Cmax
From the text: For the confinement visit, subjects arrived in the early morning after an overnight fast. Physical and neurological examination, vital signs, and assessment of compliance were completed and blood was drawn for safety laboratory tests. An intravenous line and a second line for repeated blood draw were placed. To sample CSF, the intrathecal space was accessed using a Perifix 18G Touhy Epidural Needle (90 mm), and a Polyamide Epidural Catheter (20G Closed Tip) was inserted and fixed in place by an Anesthesiologist. Participants received the last day’s dosing of study drug or placebo. Initial blood and CSF samples were drawn, intravenous infusion of ^13C6-leucine was started and continued for 9 h, during which time subjects received a low leucine diet. Blood and CSF were sampled every 2 h for 36 h. After 36 h, intravenous lines and the CSF catheter were removed, vital signs were measured, physical exam performed, and blood and CSF were sent for routine laboratory studies. […] If postural headache was present, a blood patch was performed. Once stable, participants underwent a brief exam and vital sign check and were discharged. They received a phone call 24 h after discharge to check on their wellbeing.
as §1
(§3) A prespecified Statistical Analysis Plan (SAP) was prepared and finalized before the database lock occurred. For safety and tolerability, frequencies of adverse events, serious adverse events and laboratory abnormalities between the participants across the three groups are compared, using Pearson’s χ [2] or ANOVA, as appropriate. Plasma concentration-time data are analyzed by non-compartmental methods using WinNonlin version 6.2.1 or greater. Calculations are based on the actual sampling times recorded during the study. For PK analysis, only the subjects receiving Posiphen are included.
Noncompartmental pharmacokinetic parameters were estimated using Phoenix WinNonlin v8.3 (Certara, Princeton, NJ). Levels and parameters (Cmax, AUC) of posiphen, n-1 and n-8 metabolites were highly correlated in plasma and CSF. For the BID and TID doses the expected post dose plasma peaks appeared attenuated.

Aβ38 [4] = assay: CSF Aβ38 level, screening to day 21 (MSD immunoassay); type: in vivo, human; conditions: ANOVA with age and sex as covariates; p = 0.47
Protocol: as §1, §2

cholinesterase = test system: cholinesterase; parameters: method as in PMID 11404470; conditions: cited from earlier work
Aβ40 [5] = assay: SILK analysis of CSF Aβ40 (fractional synthesis rate, IP-MS); type: in vivo, human
Protocol: From June 5, 2017 to December 31, 2021, we conducted the DISCOVER randomized clinical trial at five participating sites, coordinated by the Alzheimer’s Disease Cooperative Study (ADCS) at UCSD, with funding from the National Institute on Aging and investigational product provided by Annovis, Inc. This study was approved by each participating site’s IRB and was registered on https://www.clinicaltrials.gov/ as NCT02925650. The trial was conducted according to the guidelines of good clinical practice (GCP) and was monitored by the ADCS. A Data Safety Monitoring Board (DSMB) reviewed data for each cohort and for the study overall. […]
For the confinement visit, subjects arrived in the early morning after an overnight fast. […] After 36 h, intravenous lines and the CSF catheter were removed, vital signs were measured, physical exam performed, and blood and CSF were sent for routine laboratory studies. […]
For biochemical analysis to derive data for SILK, ^13C6-leucine was analyzed in plasma and CSF by mass spectrometry, and Aβ peptides in CSF were analyzed by immunoprecipitation-mass spectrometry (IP-MS) as previously described, by C2N Diagnostics (St Louis, MO). CSF levels of sAPPα, sAPPβ, Aβ38, 40 and 42 were analyzed by the ADCS Biomarker Core using Mesoscale Discovery (MSD) electrochemiluminescent assays (Mesoscale Discovery, Rockville, MD). […]

[6] = Safety and tolerability (adverse events, vital signs, EKG, laboratory tests); type: in vivo, human
Protocol: Safety measures included adverse events, vital signs, EKG and laboratory tests. The Mini-Mental State Examination (MMSE), Alzheimer’s Disease Assessment Scale-cognitive (ADAS-cog12) and Neuropsychiatric Inventory (NPI) were used as cognitive and behavioral outcomes,.
as §3

Aβ40 [7] = assay: CSF Aβ40 level, screening to day 21 (MSD immunoassay); type: in vivo, human; conditions: ANOVA with age and sex as covariates; p = 0.39
Protocol: as §1, §2

[8] = human, oral, 60 mg BID (n = 5), geometric mean (% geometric CV)
[9] = human, oral, 60 mg daily (n = 4; N1: only one participant measurable), geometric mean (% geometric CV)

For `CN1CC[C@]2(C)c3cc(OC(=O)Nc4ccccc4)ccc3N(C)[C@H]12` [Posiphen], the “effect on FSR estimates for Aβ38 vs. placebo” value (Aβ38 [1]) is listed as “no significant effect”, the “mean CSF sAPPα, sAPPβ and total tau at 10 days compared to pretreatment” value [2] is listed as “decreased” and the “CSF APP before and after treatment” value (APP) is listed as “small reduction”. For the same compound, the “CSF Aβ42, Treatment difference (Posiphen – placebo)” value (Aβ42) was -0.104 (0.102) p = 0.33 pg/mL, the “mean levels averaged over 24 h of CSF sampling” value (shortened to “mean levels averaged over 24 h”) ([3]; 60 mg (n = 5)) was 0.46 ± 0.30 ng/mL and the “mean levels averaged over 24 h” value ([3]; 60 mg BID (n = 5)) was 0.73 ± 0.53 ng/mL. For the same compound, the Tmax ([3]; 60 mg BID (n = 5)) was 2 (2–20) hr, the “mean levels averaged over 24 h” value ([3]; 60 mg TID (n = 1)) was 0.71 ng/mL and the Tmax ([3]; human, oral, 60 mg daily (n = 4; N1: only one participant measurable), read-out: Tmax) was 2 h. For the same compound, the AUC(0-t) [3, 8] was 17.9 ng·h/mL, the Cmax [3, 8] was 2.21 ng/mL and the AUC(0-t) ([3]; human, oral, 60 mg TID (n = 1)) was 25 ng·h/mL. It also gave a Cmax ([3]; human, oral, 60 mg TID (n = 1)) of 2.44 ng/mL, an AUC(0-t) [3, 9] of 12.3 ng·h/mL and a Cmax [3, 9] of 2.85 ng/mL. The “CSF Aβ38, Treatment difference (Posiphen – placebo)” value (Aβ38 [4]) was -0.202 (0.27) p = 0.47 pg/mL, the anticholinesterase activity (cholinesterase) was “does not” and the “effect on FSR for CSF Aβ40 vs. placebo” value (Aβ40 [5]; after 21 days, FSR from hours 6–16 and automated method, no dose-dependent effect) was “no significant effect”. For the same compound, the “peak in labeling (SILK curve)” value (Aβ40 [5]; single 180 mg per day subject, previous study maximum 24.7 h) was “about 28 h”, the ECG parameters ([6]; Posiphen vs placebo groups) was “no significant changes or differences” and the laboratory safety parameters ([6]; Posiphen vs placebo groups) was “no clinically significant changes”. The safety and tolerability ([6]; early AD, 60 mg once, twice or three times per day for 21–23 days, 11 received Posiphen, 7 placebo) was “safe and was generally well tolerated”, the “adverse events (AEs), frequency vs placebo” value ([6]; early AD, 21–23 days) was “did not differ in frequency between the groups” and the vital signs ([6]; early AD, 21–23 days) was “no significant changes”. The “CSF Aβ40, Treatment difference (Posiphen – placebo)” value (Aβ40 [7]) was -1.4 (1.57) p = 0.39 pg/mL.
